Experimental data as given in the supplement of paper PMC10307832.

Key:
Crenolanib + Foretinib = compound: CC1(COc2ccc3c(c2)ncn3-c2ccc3cccc(N4CCC(N)CC4)c3n2)COC1 [Crenolanib] + COc1cc2c(Oc3ccc(NC(=O)C4(C(=O)Nc5ccc(F)cc5)CC4)cc3F)ccnc2cc1OCCCN1CCOCC1 [Foretinib] (partner 0.25 µM); test: relative viability (nuclei count vs DMSO), 5 days (fraction); higher = more cells survive
Summary of the method: (§1)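 Lung cancer cell lines, seeded in 1536-well plates, were treated the following day by pin tool with a single drug or with five library-drug doses (not always all listed) in √10 steps on top of a fixed anchor-drug dose. Cells were fixed and nuclei stained in one step after 5 days, and nuclei were counted. Relative viability is the nuclei count for treated wells divided by that for vehicle wells, reported as medians of duplicate plates.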

Tivantinib + Tozasertib = compound: O=C1NC(=O)[C@@H](c2cn3c4c(cccc24)CCC3)[C@@H]1c1c[nH]c2ccccc12 [Tivantinib] + Cc1cc(Nc2cc(N3CCN(C)CC3)nc(Sc3ccc(NC(=O)C4CC4)cc3)n2)n[nH]1 [Tozasertib] (partner 0.1 µM); test: as above
Summary of the method: as §1

NCI-H460
relative viability (Crenolanib + Foretinib; first compound 0.01 µM): 1.02
relative viability (Crenolanib + Foretinib; first compound 0.03162 µM): 1.06
relative viability (Crenolanib + Foretinib; first compound 0.1 µM): 0.938
relative viability (Crenolanib + Foretinib; first compound 0.3162 µM): 1
relative viability (Crenolanib + Foretinib; first compound 1 µM): 0.99
relative viability (Tivantinib + Tozasertib; first compound 0.01 µM): 0.405
relative viability (Tivantinib + Tozasertib; first compound 0.03162 µM): 0.31
relative viability (Tivantinib + Tozasertib; first compound 0.1 µM): 0.368
relative viability (Tivantinib + Tozasertib; first compound 0.3162 µM): 0.299

H3255
relative viability (Crenolanib + Foretinib; first compound 0.01 µM): 0.935
relative viability (Crenolanib + Foretinib; first compound 0.03162 µM): 0.851
relative viability (Crenolanib + Foretinib; first compound 0.1 µM): 0.84
relative viability (Crenolanib + Foretinib; first compound 0.3162 µM): 0.877
relative viability (Crenolanib + Foretinib; first compound 1 µM): 1.06
relative viability (Tivantinib + Tozasertib; first compound 0.01 µM): 0.62
relative viability (Tivantinib + Tozasertib; first compound 0.03162 µM): 0.594
relative viability (Tivantinib + Tozasertib; first compound 0.1 µM): 0.535
